In ChEMBL document CHEMBL1641396, “4-Oxo-1,4-dihydropyridines as selective CB2 cannabinoid receptor ligands: structural insights into the design of a novel inverse agonist series” (J Med Chem, 2010):

What was measured:
Cannabinoid receptor 2 [1] = target: T1, Cannabinoid receptor 2 (Homo sapiens, UniProt P34972); assay: Agonist activity at human CB2 receptor expressed in CHO cells assessed as stimulation of [35S]-GTPgammaS binding relative to basal activity; type: functional, cell-based
Cannabinoid receptor 1 = Cannabinoid receptor 1 (Homo sapiens, UniProt P21554); assay: Displacement of [3H]-SR141716A from human CB1 receptor expressed in CHO cells after 1 hr; type: cell-based
Cannabinoid receptor 2 [2] = target: T1, Cannabinoid receptor 2; assay: Agonist activity at human CB2 receptor expressed in CHO cells assessed as stimulation of [35S]-GTPgammaS binding; type: functional, cell-based
Cannabinoid receptor 2 [3] = target: T1, Cannabinoid receptor 2; assay: Displacement of [3H]-CP55940 from human CB2 receptor expressed in CHO cells after 1 hr; type: cell-based

Chain of Cannabinoid receptor 1 (P21554 whole entry): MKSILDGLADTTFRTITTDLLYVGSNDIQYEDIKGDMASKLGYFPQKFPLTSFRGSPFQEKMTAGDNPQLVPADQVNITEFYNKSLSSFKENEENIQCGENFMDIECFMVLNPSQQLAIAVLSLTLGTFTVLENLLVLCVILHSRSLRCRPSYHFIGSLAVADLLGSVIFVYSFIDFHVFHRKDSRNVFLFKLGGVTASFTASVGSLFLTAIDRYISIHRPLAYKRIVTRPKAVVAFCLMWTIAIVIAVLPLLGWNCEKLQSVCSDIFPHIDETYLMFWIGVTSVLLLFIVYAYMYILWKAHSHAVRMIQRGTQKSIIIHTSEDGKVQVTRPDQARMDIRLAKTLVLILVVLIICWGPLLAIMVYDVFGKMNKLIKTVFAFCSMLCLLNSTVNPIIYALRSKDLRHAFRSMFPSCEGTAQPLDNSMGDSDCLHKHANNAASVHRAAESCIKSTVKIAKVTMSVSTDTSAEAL
T1 sequence (P34972 whole entry): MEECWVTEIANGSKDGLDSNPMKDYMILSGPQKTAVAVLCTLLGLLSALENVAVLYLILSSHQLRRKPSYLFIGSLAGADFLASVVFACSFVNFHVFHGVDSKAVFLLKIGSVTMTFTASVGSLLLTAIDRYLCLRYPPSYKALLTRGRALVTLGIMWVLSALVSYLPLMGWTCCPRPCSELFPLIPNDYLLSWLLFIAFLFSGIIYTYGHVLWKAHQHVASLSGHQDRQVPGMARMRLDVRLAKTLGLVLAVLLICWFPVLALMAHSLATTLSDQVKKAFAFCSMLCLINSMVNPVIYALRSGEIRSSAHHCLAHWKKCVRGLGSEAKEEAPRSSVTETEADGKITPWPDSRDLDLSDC

| Compound | Emax (Cannabinoid receptor 2 [1]) [%] | Ki (Cannabinoid receptor 1) [nM] | EC50 (Cannabinoid receptor 2 [2]) [nM] | Ki (Cannabinoid receptor 2 [3]) [nM] |
| --- | --- | --- | --- | --- |
| Cc1c(C(=O)c2cccc3ccccc23)c2cccc3c2n1[C@H](CN1CCOCC1)CO3 | 207 | – | – | – |
| CCCCCn1cc(C(=O)N[C@H]2CCCc3ccccc32)c(=O)cc1-c1ccccc1 | 48 | > 1000 | – | – |
| CCCCCn1cc(C(=O)NC2CCCCC2)c(=O)cc1-c1ccc(Cl)cc1 | 39 | > 1000 | – | – |
| CCCC(C)(C)c1ccc2c(c1)OC(C)(C)[C@@H]1CC=C(O)C[C@@H]21 | 201 | – | 146 | 20.3 |
| CCCCCn1cc(C(=O)NN2CCCCC2)c(=O)cc1-c1ccccc1 | 48 | > 3000 | – | – |
| CCn1cc(C(=O)NC(C)C23CC4CC(CC(C4)C2)C3)c(=O)cc1-c1ccccc1 (racemic) | – | > 3000 | – | – |
| CCCCCn1cc(NC(=O)C2CCCCC2)c(=O)cc1-c1ccccc1 | 43 | > 3000 | 25 | 51 |
| CCCCCn1cc(C(=O)NC2CCCCC2)c(=S)cc1-c1ccccc1 | 45 | > 1000 | 27 | 48 |
| CCCCCn1cc(C(=O)NC(C)C23CC4CC(CC(C4)C2)C3)c(=O)cc1-c1ccccc1 (racemic) | 46 | 368 | – | – |
| CCCCCn1cc(C(=O)NC23CC4CC(CC(C4)C2)C3)c(=O)cc1-c1ccccc1 | – | 592 | – | – |
| CCCCCn1cc(C(=O)NCC23CC4CC(CC(C4)C2)C3)c(=O)cc1-c1ccccc1 | – | 626 | – | – |
| CCCCCn1cc(C(=O)NC23CC4CC(CC(C4)C2)C3)c(=O)cc1C(C)(C)C | 212 | > 3000 | – | – |
| CCCCCCn1cc(C(=O)NC23CC4CC(CC(C4)C2)C3)c(=O)cc1-c1ccccc1 | – | 596 | – | – |
| CCCCCn1cc(C(=O)NC2CCCCC2)c(=O)cc1-c1ccccc1 | 62 | 929 | – | – |
| CCCCCn1cc(C(=O)NC23CC4CC(CC(C4)C2)C3)c(=O)cc1-c1ccc(C)cc1 | – | 134 | – | 13.2 |
| CCCCCn1cc(C(=O)NC23CC4CC(CC(C4)C2)C3)c(=O)cc1-c1ccccc1Cl | – | 34.4 | – | 0.7 |
| CC(NC(=O)c1cn(-c2ccccc2)c(-c2ccccc2)cc1=O)C12CC3CC(CC(C3)C1)C2 (racemic) | – | > 3000 | – | > 3000 |
| CCCCCn1cc(C(=O)NC2CCCCC2)c(=O)cc1C(C)(C)C | – | > 3000 | – | – |
| CCCCCCC(C)(C)c1ccc([C@@H]2C[C@H](O)CC[C@H]2CCCO)c(O)c1 | 230 | – | – | – |
| CCCCCn1cc(C(=O)N[C@@H]2CCCc3ccccc32)c(=O)cc1-c1ccccc1 | 42 | 131 | – | – |
| CCCCCn1cc(C(=O)NC23CC4CC(CC(C4)C2)C3)c(=S)cc1-c1ccccc1 | 30 | > 1000 | 17 | 18.8 |
| CCCCCn1cc(C(=O)Nc2cccc(C(F)(F)F)c2)c(=O)cc1-c1ccc(Cl)cc1 | 42 | > 1000 | 158 | > 1000 |
| CCCCCn1cc(NC(=O)OC(C)(C)C)c(=O)cc1-c1ccccc1 | 26 | > 3000 | 164 | 209 |
| CCCCCn1cc(C(=O)NC23CC4CC(CC(C4)C2)C3)c(=O)cc1-c1ccc(Cl)cc1 | – | > 1000 | – | – |
| CCCCCn1cc(C(=O)Nc2cccc(C(F)(F)F)c2)c(=O)cc1-c1ccccc1 | 42 | > 3000 | 14 | 25.8 |
| CCCCCn1cc(C(=O)NC23CC4CC(CC(C4)C2)C3)c(=O)cc1-c1ccc(OC)cc1 | – | 384 | – | 91.1 |
| CCCCn1cc(C(=O)NC23CC4CC(CC(C4)C2)C3)c(=O)cc1-c1ccccc1 | – | > 1000 | – | – |
| CCCCCn1cc(C(=O)NC23CC4CC(CC(C4)C2)C3)c(=O)cc1C | 148 | > 3000 | – | – |
| CCCCCn1cc(C(=O)NC23CC4CC(CC(C4)C2)C3)c(=O)cc1-c1cccc(Cl)c1 | – | 51.2 | – | 1.8 |
